In patent US4507297A, “Piperazine derivatives and a medicine containing the same” (priority 1981, dated 1985):
Structures can show the parent of a compound that is named as a salt. Where two headings read alike, the source gives them in different places.

Legend:
[1] = system: experimental myocardial infarction; assay: Effects against an experimental myocardial infarction (anterior descending artery ligation, necrotic area by planimetry); format: in vivo, rabbit; settings: for inhibition in vivo at 200 mg/kg: read-out: Inhibition rates (%), T = 200 mg/kg, i.v.
Procedure: The chest wall of each animal was incised under artificial respiration, and the anterior descending artery was ligated (about 7 mm downward of the starting portion). 24 Hours later, the heart was taken out, and a myocardium between the cadiac apex and the ligated portion was sliced to have a thickness of 2 mm and stained to distinguish the infarction-affected portions by a phosphorylase reaction, whereupon the area of the necrotic portion was calculated by planimetory. Medicinal substances were administered 5 minutes prior to the ligation (T/2 mg/kg, i.v.), continuously from immediately after the ligation to one hour later (T/4 mg/kg/hr, by constant dropping), 2 hours after the ligation (T/8 mg/kg, i.v.) and 3 hours after the ligation (T/8 mg/kg, i.v.). Each medicinal substance was administered in the form of a physiological sodium chloride solution. Where the substance was hardly soluble, it was used in the form of a salt. To a control group was administered only a physiological sodium chloride solution. (T means a total amount of administration.)

mice = assay: in vivo; settings: i.v., tail of mice
Procedure: (§1) Medicinal substances were administered intravenously from the tails of the mice.

in vivo = settings: mouse, in vivo, iv, tail of mice
Procedure: as §1

[2] = Oryctolagus cuniculus, iv, 24 h, vs control 14.9 ± 0.7
[3] = T = 200 mg/kg, i.v., 8 cases, control 14.9 ± 0.7
[4] = Oryctolagus cuniculus, iv, 24 h, vs control 14.1 ± 1.0
[5] = T = 200 mg/kg, i.v., 8 cases, control 14.1 ± 1.0
[6] = Oryctolagus cuniculus, iv, 24 h, T = 40 mg/kg, i.v., vs control 14.1 ± 1.0, read-out: Inhibition rates (%)
[7] = T = 40 mg/kg, i.v., 8 cases, control 14.1 ± 1.0

## COc1ccc(CN2CCN(C(=O)[C@H](CC(C)C)NC(=O)[C@@H]3O[C@H]3C(=O)[O-])CC2)cc1.[Na+]
[1]; [2]
  inhibition in vivo at 200 mg/kg: 20.1%
[1]; [3]
  Necrotic area (mean ± S.E. %): 11.9 ± 0.8%
mice
  MLD (in column LD50 mice): > 1125 mg/kg

## COc1ccc(CN2CCN(C(=O)[C@H](CC(C)C)NC(=O)[C@H]3O[C@@H]3C(=O)[O-])CC2)c(OC)c1OC.[Na+]
[1]; [4]
  inhibition in vivo at 200 mg/kg: 24.1%
[1]; [5]
  Necrotic area (mean ± S.E. %): 10.7 ± 0.9%
mice
  MLD (in column LD50 mice): > 1125 mg/kg

## CCN1CCN(C(=O)[C@H](CC(C)C)NC(=O)[C@@H]2O[C@H]2C(=O)[O-])CC1.[Na+]
[1]; [2]
  inhibition in vivo at 200 mg/kg: 20.8%
[1]; [3]
  Necrotic area (mean ± S.E. %): 11.8 ± 0.9%
mice
  MLD (in column LD50 mice): > 1125 mg/kg

## CC(C)NCC(O)COc1cccc2ccccc12 (stereo not drawn) [Propranolol hydrochloride, reference compound]
[1]; Oryctolagus cuniculus, iv, 24 h, T = 1 mg/kg, i.v., vs control 14.6 ± 1.0, read-out: Inhibition rates (%)
  inhibition in vivo at 1 mg/kg: 6.2%
[1]; Oryctolagus cuniculus, iv, 24 h, T = 2 mg/kg, i.v., vs control 14.6 ± 1.0, read-out: Inhibition rates (%)
  inhibition in vivo at 2 mg/kg: 23.3%
[1]; Oryctolagus cuniculus, iv, 24 h, T = 4 mg/kg, i.v., vs control 14.6 ± 1.0, read-out: Inhibition rates (%)
  inhibition in vivo at 4 mg/kg: 26.7%
[1]; T = 1 mg/kg, i.v., 8 cases, control 14.6 ± 1.0
  Necrotic area (mean ± S.E. %): 13.7 ± 1.1%

## COc1ccc(CN2CCN(C(=O)[C@H](CC(C)C)NC(=O)[C@@H]3O[C@H]3C(=O)[O-])CC2)c(OC)c1OC.[Na+] [listing 1 of 2 here]
[1]; [4]
  inhibition in vivo at 200 mg/kg: 30.5%
[1]; [5]
  Necrotic area (mean ± S.E. %): 9.8 ± 0.9%

## CC(C)C[C@H](NC(=O)C1OC1C(=O)O)C(=O)N1CCN(C(c2ccccc2)c2ccccc2)CC1 (stereo partly drawn) [Compound 1]
[1]; Oryctolagus cuniculus, iv, 24 h, T = 80 mg/kg, i.v., vs control 14.9 ± 0.7, read-out: Inhibition rates (%)
  inhibition in vivo at 80 mg/kg: 24.8%
[1]; T = 80 mg/kg, i.v., 8 cases, control 14.9 ± 0.7
  Necrotic area (mean ± S.E. %): 11.2 ± 0.5%
In vivo
  LD50: 174 mg/kg

## CC(C)C[C@H](NC(=O)[C@@H]1O[C@H]1C(=O)[O-])C(=O)N1CCN(c2ncccn2)CC1.[Na+] [listing 1 of 2 here]
[1]; [4]
  inhibition in vivo at 200 mg/kg: 23%
[1]; [5]
  Necrotic area (mean ± S.E. %): 11.1 ± 0.7%

## CCOC(=O)[C@H]1O[C@@H]1C(=O)N[C@@H](CC(C)C)C(=O)N1CCN(Cc2ccc(OC)c(OC)c2OC)CC1 [Compound 12, Ethyl (2S,3S)-3-[(s)-3-methyl-1-{4-(2,3,4-trimethoxyphenylmethyl)piperazine-1-ylcarbonyl}butylcarbamoyl]oxirane-2-carboxylate 1/2 sulfate]
[1]; [6]
  inhibition in vivo at 40 mg/kg: 19.9%
[1]; [7]
  Necrotic area (mean ± S.E. %): 11.3 ± 1.2%
In vivo
  LD50: 345 mg/kg

## CC(C)C[C@H](NC(=O)[C@H]1O[C@@H]1C(=O)[O-])C(=O)N1CCN(c2ncccn2)CC1.[Na+]
[1]; [4]
  inhibition in vivo at 200 mg/kg: 26%
[1]; [5]
  Necrotic area (mean ± S.E. %): 10.7 ± 0.4%
mice
  MLD (in column LD50 mice): > 1125 mg/kg

## CCOC(=O)[C@@H]1O[C@H]1C(=O)N[C@@H](CC(C)C)C(=O)N1CCN(Cc2ccc(OC)c(OC)c2OC)CC1 [Compound 11, Ethyl (2R,3R)-3-[(s)-3-methyl-1-{4-(2,3,4-trimethoxyphenylmethyl)piperazine-1-ylcarbonyl}butylcarbamoyl]oxirane-2-carboxylate 1/2 sulfate]
[1]; [6]
  inhibition in vivo at 40 mg/kg: 29.1%
[1]; [7]
  Necrotic area (mean ± S.E. %): 10.0 ± 1.0%
In vivo
  LD50: 374 mg/kg

## COc1ccc(CCN(C)CCCC(C#N)(c2ccc(OC)c(OC)c2)C(C)C)cc1OC (racemic) [Verapanil hydrochloride, reference compound]
[1]; Oryctolagus cuniculus, iv, 24 h, read-out: Inhibition rates (%), T = 2 mg/kg, i.v., vs control 14.6 ± 1.0
  inhibition in vivo at 2 mg/kg: 24.7%
[1]; T = 2 mg/kg, i.v., 7 cases (propranolol), 10 cases (verapanil), control 14.6 ± 1.0
  Necrotic area (mean ± S.E. %): 11.0 ± 1.3%

## CC(C)C[C@H](NC(=O)[C@@H]1O[C@H]1C(=O)[O-])C(=O)N1CCN(CC=Cc2ccccc2)CC1.[Na+]
[1]; Oryctolagus cuniculus, iv, 24 h, read-out: Inhibition rates (%), T = 100 mg/kg, i.v., vs control 14.9 ± 0.7
  inhibition in vivo at 100 mg/kg: 25.5%
[1]; T = 100 mg/kg, i.v., 8 cases, control 14.9 ± 0.7
  Necrotic area (mean ± S.E. %): 11.1 ± 0.6%
mice
  MLD (in column LD50 mice): 1000 to 1125 mg/kg

## CC(C)C[C@H](NC(=O)[C@@H]1O[C@H]1C(=O)[O-])C(=O)N1CCN(c2ncccn2)CC1.[Na+] [listing 2 of 2 here]
[1]; [2]
  inhibition in vivo at 200 mg/kg: 25.5%
[1]; [3]
  Necrotic area (mean ± S.E. %): 11.1 ± 0.8%
mice
  MLD (in column LD50 mice): > 1125 mg/kg

## COc1ccc(CN2CCN(C(=O)[C@H](CC(C)C)NC(=O)C3OC3C(=O)OCC(C)C)CC2)c(OC)c1OC (stereo partly drawn) [Compound 9, Isobutyl trans-3-[(s)-3-methyl-1-{4-(2,3,4-trimethoxyphenylmethyl)piperazine-1-ylcarbonyl}butylcarbamoyl]oxirane-2-carboxylate 1/2 sulfate]
[1]; [6]
  inhibition in vivo at 40 mg/kg: 18.4%
[1]; [7]
  Necrotic area (mean ± S.E. %): 11.5 ± 1.2%
In vivo
  LD50: 440 mg/kg

## COc1ccc(CN2CCN(C(=O)[C@H](CC(C)C)NC(=O)[C@@H]3O[C@H]3C(=O)[O-])CC2)c(OC)c1OC.[Na+] [listing 2 of 2 here]
[1]; [2]
  inhibition in vivo at 200 mg/kg: 29.5%
[1]; [3]
  Necrotic area (mean ± S.E. %): 10.5 ± 0.9%
mice
  MLD (in column LD50 mice): > 1125 mg/kg

## CC(C)C[C@H](NC(=O)[C@@H]1O[C@H]1C(=O)[O-])C(=O)N1CCN(c2ccccn2)CC1.[Na+]
[1]; [2]
  inhibition in vivo at 200 mg/kg: 22.1%
[1]; [3]
  Necrotic area (mean ± S.E. %): 11.6 ± 0.7%
mice
  MLD (in column LD50 mice): > 1125 mg/kg

## CCOC(=O)C1OC1C(=O)N[C@@H](CC(C)C)C(=O)N1CCN(Cc2ccc(OC)c(OC)c2OC)CC1 (stereo partly drawn) [Compound 10, Ethyl trans-3-[(s)-3-methyl-1-{4-(2,3,4-trimethoxyphenylmethyl)piperazine-1-ylcarbonyl}butylcarbamoyl]oxirane-2-carboxylate 1/2 sulfate]
[1]; [6]
  inhibition in vivo at 40 mg/kg: 25.5%
[1]; [7]
  Necrotic area (mean ± S.E. %): 10.5 ± 1.1%

## CC(C)C[C@H](NC(=O)[C@@H]1O[C@H]1C(=O)[O-])C(=O)N1CCN(Cc2ccccc2)CC1.[Na+]
[1]; [2]
  inhibition in vivo at 200 mg/kg: 20.1%
[1]; [3]
  Necrotic area (mean ± S.E. %): 11.9 ± 0.6%
mice
  MLD (in column LD50 mice): > 1125 mg/kg
